Experimental data reported in ChEMBL document CHEMBL2321732, “Synthesis and evaluation of novel 2,3,5-triaryl-4H,2,3,3a,5,6,6a-hexahydropyrrolo[3,4-d]isoxazole-4,6-diones for advanced glycation end product formation inhibitory activity” (Bioorg Med Chem Lett, 2013).

Assay: Antiglycation activity assessed as inhibition of glucose-mediated advanced glycation end product formation after 30 hrs by fluorescence spectrophotometry in presence of bovine serum albumin
Type: physicochemical

Compound | IC50
O=C(O)c1ccc(N2C(=O)[C@H]3[C@@H](c4ccccc4O)N(c4ccccc4)O[C@H]3C2=O)cc1 (relative stereo) | 24.4 µM
O=C1[C@@H]2[C@@H](ON(c3ccccc3)[C@H]2c2ccccc2Cl)C(=O)N1c1ccccc1 (relative stereo) | 30.9 µM
Cc1ccc(N2C(=O)[C@@H]3[C@@H](ON(c4ccccc4)[C@H]3c3ccccc3O)C2=O)cc1 | 75 µM
O=C1[C@H]2[C@@H](c3ccccc3O)N(c3ccccc3)O[C@H]2C(=O)N1c1ccccc1 (relative stereo) | 25.9 µM
COc1ccc(N2C(=O)[C@H]3[C@@H](c4ccccc4O)N(c4ccccc4)O[C@H]3C2=O)cc1 (relative stereo) | 26.6 µM
O=C1[C@@H]2[C@@H](ON(c3ccccc3)[C@H]2c2ccccc2O)C(=O)N1c1ccccc1 (relative stereo) | 64.8 µM
O=C(O)c1ccc(N2C(=O)[C@@H]3[C@@H](ON(c4ccccc4)[C@H]3c3ccccc3Cl)C2=O)cc1 (relative stereo) | 127 µM
COc1ccc(N2C(=O)[C@@H]3[C@@H](ON(c4ccccc4)[C@H]3c3ccccc3O)C2=O)cc1 (relative stereo) | 90.1 µM
O=C(O)c1ccc(N2C(=O)[C@H]3[C@@H](c4ccccc4Cl)N(c4ccccc4)O[C@H]3C2=O)cc1 (relative stereo) | 33 µM
O=C(O)c1ccc(N2C(=O)[C@@H]3[C@@H](ON(c4ccccc4)[C@H]3c3ccccc3O)C2=O)cc1 (relative stereo) | 63.9 µM
N=C(N)NN [PIMAGEDINE] | 40.5 µM

More lines, in order of falling IC50, values ahead:

IC50 | Compound
24.2 µM | COc1ccc(N2C(=O)[C@@H]3[C@@H](ON(c4ccccc4)[C@H]3c3ccccc3Cl)C2=O)cc1 (relative stereo)
23.9 µM | Cc1ccc(N2C(=O)[C@@H]3[C@@H](ON(c4ccccc4)[C@H]3c3ccccc3Cl)C2=O)cc1 (relative stereo)
18.8 µM | Cc1ccc(N2C(=O)[C@H]3[C@@H](c4ccccc4O)N(c4ccccc4)O[C@H]3C2=O)cc1 (relative stereo)
8.63 µM | COc1ccc(N2C(=O)[C@H]3[C@@H](c4ccccc4Cl)N(c4ccccc4)O[C@H]3C2=O)cc1 (relative stereo)
7.4 µM | O=C1[C@H]2[C@@H](c3ccccc3Cl)N(c3ccccc3)O[C@H]2C(=O)N1c1ccccc1 (relative stereo)
7.18 µM | Cc1ccc(N2C(=O)[C@H]3[C@@H](c4ccccc4Cl)N(c4ccccc4)O[C@H]3C2=O)cc1 (relative stereo)
